biological target: T1, cloned human CRTH2 receptor (Homo sapiens, UniProt Q9Y5Y4); assay: Radioligand membrane binding assay: inhibition of [3H] PGD2 binding to CRTH2 (Scintillation Proximity Assay); conditions: inhibition of [3H] PGD2 binding to membranes of HEK-293 cells stably expressing human CRTH2; SPA; 10 point curve from 10 μM; room temperature, approximately 2 hours
T1 construct: purchased Biosignal; host or cells: HEK-293 cells stably expressing human CRTH2 and G-alpha-16 (membranes)
T1 sequence (Q9Y5Y4 1-395): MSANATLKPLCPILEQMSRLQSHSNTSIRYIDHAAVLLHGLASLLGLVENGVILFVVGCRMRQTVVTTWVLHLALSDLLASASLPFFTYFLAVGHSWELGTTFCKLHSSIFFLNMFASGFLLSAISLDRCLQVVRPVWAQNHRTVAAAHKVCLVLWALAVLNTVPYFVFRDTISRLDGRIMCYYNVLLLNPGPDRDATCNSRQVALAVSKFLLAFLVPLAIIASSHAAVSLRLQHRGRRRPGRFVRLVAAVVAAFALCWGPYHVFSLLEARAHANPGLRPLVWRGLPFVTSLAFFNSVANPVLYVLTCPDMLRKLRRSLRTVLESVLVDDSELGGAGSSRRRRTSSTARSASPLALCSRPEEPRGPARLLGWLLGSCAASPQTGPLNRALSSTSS
Procedure, shortened: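 Scintillation proximity binding of [3H] PGD2 (at KD or lower) to membranes of HEK-293 cells stably expressing human CRTH2, in 50 mM Tris-HCl pH 7.5, 5 mM MgCl2, 1 mM EDTA. Ten-point 3-fold series from 10 μM final, ~2 h at room temperature; cold PGD2 defines NSB; percent inhibition, duplicate runs (n=2).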

| SMILES | Ki |
| --- | --- |
| CCC(=O)N(c1ccc(Cl)cc1)[C@@H]1C[C@H](c2ccccc2)N(C(=O)c2ccc(F)cc2)c2ccccc21 (racemic) [Compound B-108, (±)-Cis-N-(4-chloro-phenyl)-N-[1-(4-fluoro-benzoyl)-2-phenyl-1,2,3,4-tetrahydro-quinolin-4-yl]-propionamide] | < 10 µM |
| COc1ccc(C(=O)N2c3ccccc3[C@H](N(C(C)=O)c3ccc(OCC(=O)O)cc3)C[C@@H]2C)cc1 [Compound D-10, (2S,4R)-(4-{Acetyl-[1-(4-methoxybenzoyl)-2-methyl-1,2,3,4-tetrahydro-quinolin-4-yl]-amino}-phenoxy)-acetic acid] | < 10 µM |
| CC(=O)N(c1ccccc1)[C@@H]1C[C@H](C(=O)O)N(C(=O)c2ccc(F)cc2)c2ccccc21 (racemic) [Compound B-102, (±)-Cis-4-(acetyl-phenyl-amino)-1-(4-fluoro-benzoyl)-1,2,3,4-tetrahydro-quinoline-2-carboxylic acid] | < 10 µM |
| COc1cccc(C(=O)N2c3ccccc3[C@H](N(C(C)=O)C3CCCCC3)C[C@@H]2C)c1 (racemic) [Compound B-53, (±)-Cis-N-cyclohexyl-N-[1-(3-methoxy-benzoyl)-2-methyl-1,2,3,4-tetrahydro-quinolin-4-yl]-acetamide] | < 60 µM |
| COc1ccc(C(=O)N2c3cc(C)ccc3[C@@H](N(C(C)=O)c3ccc(Cl)cc3)C[C@H]2C)cc1 [Compound B-58, (2R,4S)-cis-N-(4-chloro-phenyl)-N-[1-(4-methoxy-benzoyl)-2,7-dimethyl-1,2,3,4-tetrahydro-quinolin-4-yl]-acetamide] | < 10 µM |
| CCC(=O)N(c1ccccc1)[C@@H]1C[C@H](C)N(C(=O)c2ccc(-c3ccc([N+](=O)[O-])cc3)o2)c2ccccc21 (racemic) [Compound A-144, (±)-Cis-N-{2-methyl-1-[5-(4-nitro-phenyl)-furan-2-carbonyl]-1,2,3,4-tetrahydro-quinolin-4-yl}-N-phenyl-propionamide] | < 10 µM |
| CCC(=O)N(c1ccc(Cl)cc1)[C@@H]1C[C@H](CCc2ccccc2)N(C(=O)c2ccc(F)cc2)c2ccccc21 (racemic) [Compound B-97, (±)-Cis-N-(4-chloro-phenyl)-N-[1-(4-fluoro-benzoyl)-2-phenethyl-1,2,3,4-tetrahydro-quinolin-4-yl]-propionamide] | < 10 µM |
| CC(=O)N(c1ccc(Oc2ccccc2)cc1)[C@@H]1C[C@H](C)N(C(=O)c2ccc(F)cc2)c2ccccc21 (racemic) [Compound B-51, (±)-Cis-N-[1-(4-fluoro-benzoyl)-2-methyl-1,2,3,4-tetrahydro-quinolin-4-yl]-N-(4-phenoxy-phenyl)-acetamide] | < 10 µM |
| CCC(=O)N(c1ccccc1)[C@H]1C[C@@H](C)N(C(=O)c2ccc(C3CCN(C(C)=O)CC3)cc2)c2ccccc21 [Compound A-51, (2R,4S)-cis-N-{1-[4-(1-acetyl-piperidin-4-yl)-benzoyl]-2-methyl-1,2,3,4-tetrahydro-quinolin-4-yl}-N-phenyl-propionamide] | < 10 µM |
| CCC(=O)N(c1ccc(C(F)(F)F)cc1)[C@@H]1C[C@H](C)N(C(=O)c2ccc(F)cc2)c2ccccc21 (racemic) [Compound B-13, (±)-Cis-N-[1-(4-Fluoro-benzoyl)-2-methyl-1,2,3,4-tetrahydro-quinolin-4-yl]-N-(4-trifluoromethyl-phenyl)-propionamide] | < 10 µM |
| CCC(=O)N(c1ccc(Cl)cc1)[C@H]1C[C@@H](C)N(C(=O)c2ccc(OC)cc2)c2ccccc21 [Compound B-18, (2R,4S)-cis-N-(4-chloro-phenyl)-N-[1-(4-methoxy-benzoyl)-2-methyl-1,2,3,4-tetrahydro-quinolin-4-yl]-propionamide] | < 10 µM |
| C=CCC(=O)N(c1ccccc1)[C@@H]1C[C@H](C)N(C(=O)c2ccc(F)cc2)c2ccccc21 (racemic) [Compound A-147, (±)-Cis-but-3-enoic acid [1-(4-fluoro-benzoyl)-2-methyl-1,2,3,4-tetrahydro-quinolin-4-yl]-phenyl-amide] | < 10 µM |

The remaining lines, values ahead:

| Ki | SMILES |
| --- | --- |
| < 10 µM | COc1ccc(C(=O)N2c3ccccc3[C@@H](N(C(C)=O)c3ccc(Cl)cc3)C[C@H]2C)cc1 [Compound B-34, (2R,4S)-cis-N-(4-Chloro-phenyl)-N-[1-(4-methoxy-benzoyl)-2-methyl-1,2,3,4-tetrahydro-quinolin-4-yl]-acetamide] |
| < 10 µM | CCC(=O)N(c1ccccc1)[C@@H]1C[C@H](C)N(C(=O)c2ccnc(C)c2)c2ccccc21 (racemic) [Compound A-131, (±)-Cis-N-[2-methyl-1-(2-methyl-pyridine-4-carbonyl)-1,2,3,4-tetrahydro-quinolin-4-yl]-N-phenyl-propionamide] |
| < 10 µM | COc1cccc(C(=O)N2CCC(N(C(C)=O)c3ccccc3)c3ccccc32)c1 (stereo not drawn) [Compound F-3, N-[1-(3-Methoxy-benzoyl)-1,2,3,4-tetrahydro-quinolin-4-yl]-N-phenyl-acetamide] |
| < 10 µM | COc1cccc(C(=O)N2c3ccccc3[C@H](N(C(=O)c3ccc(Cl)cc3)c3ccccc3)C[C@@H]2C)c1 (racemic) [Compound A-3, (±)-Cis-4-chloro-N-[1-(3-methoxy-benzoyl)-2-methyl-1,2,3,4-tetrahydro-quinolin-4-yl]-N-phenyl-benzamide] |
| < 60 µM | COc1cccc(C(=O)N2c3ccccc3[C@@H](N(C(C)=O)c3ccccc3)C[C@H]2C)c1 [Compound A-126, (2R,4S)-cis-N-[1-(3-methoxy-benzoyl)-2-methyl-1,2,3,4-tetrahydro-quinolin-4-yl]-N-phenyl-acetamide] |
| < 10 µM | CC(=O)N(c1ccccc1)[C@H]1C[C@@H](C)N(C(=O)c2cccs2)c2ccccc21 [Compound A-11, (2R,4S)-N-[2-methyl-1-(thiophene-2-carbonyl)-1,2,3,4-tetrahydro-quinolin-4-yl]-N-phenyl-acetamide] |

Reference: patent US7504508B2, “PGD2 receptor antagonists for the treatment of inflammatory diseases” (Millennium Pharmaceuticals, Inc., priority 2002, dated 2009)
